Test results taken from patent US4849410A, “Pseudopterosin and synthetic derivatives thereof” (The Regents of the University of California, priority 1987, dated 1989).

What was measured:
[1] = system: Phorbol Myristate Acetate (PMA) Induced Topical Inflammation of the Mouse Ear; experiment: Mouse Ear Anti-Inflammatory Assay (PMA, topical); type: in vivo; settings: for Ear Weight Mean ± S.E.M.: PMA 1.5 ug
Protocol: a. Mouse Ear Anti-Inflammatory Assay
Test compound and phorbol myristate acetate (PMA) are topically applied simultaneously to the pinnae of the ears of mice. Three hours twenty minutes after application, mice are sacrificed, ears removed and standard sized bores taken. Edema (inflammation) is measured as the difference in weight between control and treated ears.
(§1) The vheicle or carrier for the compounds used in the inflammatory and analgesic assays was as follows; For the mouse ear inflammatory assay, the vehicle was acetone. Controls received 25 microliters of acetone. Test compounds were applied to the experimental animals in 25 microliter volumes. For the sperm motility and fertilized sea urchin egg assays, the compounds were dissolved in 10 microliters undenatured ethanol.

sea urchin sperm = experiment: Sperm Motility Assay; type: cell-based; settings: 16 microgram/ml (10^-5 m)
Protocol: Male sea urchins are induced to spawn by injection of 0.5M KCl into the coelomic cavity. Sperm is collected via a pasteur pipette and stored in a test tube on ice. One drop of undiluted sperm is added to 25 ml of filtered fresh seawater, then 1.0 ml volumes of this solution are immediately added to test tubes containing 10 microliter test solution. Aliquots of sperm from each tube are observed microscopically for motility at a time two minutes after addition of sperm to test solution.
as §1

[2] = system: Fertilized Sea Urchin Egg; experiment: Fertilized Sea Urchin Egg Inhibition of Cleavage Assay for Anti-proliferation; type: cell-based; settings: doses as low as
Protocol: c. Fertilized Sea Urchin Egg Inhibition of Cleavage Assay for Anti-proliferation
Sea urchins are induced to spawn by injection of 0.5M KCl into the coelomic cavity. Test compound is added to a 1% slurry of eggs within 5 minutes following fertilization and incubated until the completion of the division in control slurry, 90-120 minutes. Inhibition is measured as the present of undivided cells in the slurry at the end of this incubation.
as §1

P388 leukemia = experiment: Evaluation in mice bearing ip P388 leukemia; type: in vivo, female B6D2F1 mice; settings: for Increase to Lifespan / Median Survival Time / Weight Change Day 5 / Weight Change Day 9: Days 1-5
Protocol: Compound I was also evaluated in mice bearing P388 Leukemia as follows:
Compound I was administered to the mice as a solution by first dissolving it in N,N-dimethylacetamide, adding an equal volume of Cremophor EL and then 8 volumes of water. The drug concentration was such that the desired dose was delivered in a volume of 0.5 ml per mouse. Dilutions from the highest dose in a dose-response study were made by the addition of water so that organic component of the formulation decreased with dose reduction; the drug remained in solution.
10^6 P388 leukemia cells were implanted intraperitoneal in female B6D2F1 mice which were randomized to treatment groups of six animals each. Treatment was initiated 24 hours after tumor implantation and was continued daily for five days (Cisplatin was administered on Days 1 and 5 for the Group 1 mice). Mice were weighted as groups on Days 1, 5 and 9 to provide an indication of drug toxicity. Mice were monitored for survival daily for 45 days, and the median day of death was determined compared to three groups of untreated controls to provide percent increase in lifespan (ILS). ILS values of greater than or equal to 40 percent represent actual reduction in tumor cell burden during the course of treatment and are taken as indications of biologically significant antitumor effect.

[3] = Side effects, subcutaneous administration to mice; type: in vivo
Source text: The following side effect of pseudopterosin A (Compound I) was observed.

[4] = system: PMA induced swelling of the mouse ear; experiment: Anti-Inflammatory Assay (systemic administration); type: in vivo, male Swiss Webster mice
Protocol: Anti-Inflammatory Assay (systemic administration)
2 ug PMA was applied in 25 ul of acetone to the inner surface of the left ear of male Swiss Webster mice (4 to 6 weeks old), the right ear is treated with acetone only. […] 200 minutes after PMA treatment, the mice were killed by cervical dislocation and both ears were cut off, punched with a #4 cork borer and weighed. The swelling induced by PMA was calculated as the increase in the weight of the left ear minus the right ear. The percent inhibition of edema was calculated as control-drug/control×100. […] ED50 values were estimated by the method of Litchfield and Wilcoxon.

[5] = system: PMA induced swelling of the mouse ear; experiment: Anti-Inflammatory Assay (topical administration); type: in vivo, mice
Protocol: Anti-Inflammatory (topical administration)
2 ug PMA was applied in 25 ul of acetone of the inner surface of the left ear, the right ear is treated with solvent only. […] 200 minutes after PMA treatment, the mice were killed by cervical dislocation and both ears were cut off, punched with a #4 cork borer and weighed. The swelling induced by PMA was calculated as the mean increase in the weight of the left ear minus the right ear. The pecent inhibition of edema was calculated as control-drug/control×100. […] ED50 values were estimated by the method of Litchfield and Wilcoxon.

[6] = 12.5 mg/kg to 50 mg/kg subcutaneously

SMILES: CC(C)=C[C@H]1C[C@H](C)[C@H]2CC[C@H](C)c3c(O[C@@H]4OC[C@@H](O)[C@H](O)[C@H]4O)c(O)c(C)c1c32 [Compound I, pseudopterosin A]
- decrease in edema ([1]; 50 microgram): 69%
- Ear Weight Mean ± S.E.M. ([1]; 6.25 ug/ear): 16.78 ± 0.91 mg
- Ear Weight Mean ± S.E.M. ([1]; 12.5 ug/ear): 14.99 ± 0.6 mg
- Ear Weight Mean ± S.E.M. ([1]; 25.0 ug/ear): 13.18 ± 0.53 mg
- Ear Weight Mean ± S.E.M. ([1]; 50.0 ug/ear): 12.47 ± 0.46 mg
- Ear Weight Mean ± S.E.M. ([1]; 100.0 ug/ear): 11.70 ± 0.37 mg
- Anti-inflammatory Activity ([1]; summary): Active
- inhibition of sperm motility (sea urchin sperm): totally inhibits
- dose that totally inhibits cell division [2]: 7 µM
- Increase to Lifespan (P388 leukemia; Group 2, 7.9 mg/kg ip): 10%
- Median Survival Time (P388 leukemia; Group 2, 7.9 mg/kg ip): 11 days
- Weight Change Day 5 (P388 leukemia; Group 2, 7.9 mg/kg ip): +1.1 gm
- Weight Change Day 9 (P388 leukemia; Group 2, 7.9 mg/kg ip): +3.6 gm
- Increase to Lifespan (P388 leukemia; Group 2, 11.9 mg/kg ip): 15%
- Median Survival Time (P388 leukemia; Group 2, 11.9 mg/kg ip): 11.5 days
- Weight Change Day 5 (P388 leukemia; Group 2, 11.9 mg/kg ip): +0.7 gm
- Weight Change Day 9 (P388 leukemia; Group 2, 11.9 mg/kg ip): +2.5 gm
- Increase to Lifespan (P388 leukemia; Group 2, 17.8 mg/kg ip): 15%
- Median Survival Time (P388 leukemia; Group 2, 17.8 mg/kg ip): 11.5 days
- Weight Change Day 5 (P388 leukemia; Group 2, 17.8 mg/kg ip): 0 gm
- Weight Change Day 9 (P388 leukemia; Group 2, 17.8 mg/kg ip): +2.8 gm
- Increase to Lifespan (P388 leukemia; Group 2, 26.7 mg/kg ip): 25%
- Median Survival Time (P388 leukemia; Group 2, 26.7 mg/kg ip): 12.5 days
- Weight Change Day 5 (P388 leukemia; Group 2, 26.7 mg/kg ip): -0.7 gm
- Weight Change Day 9 (P388 leukemia; Group 2, 26.7 mg/kg ip): +3.4 gm
- Increase to Lifespan (P388 leukemia; Group 2, 40 mg/kg ip): 30%
- Median Survival Time (P388 leukemia; Group 2, 40 mg/kg ip): 13 days
- Weight Change Day 5 (P388 leukemia; Group 2, 40 mg/kg ip): -2.1 gm
- Weight Change Day 9 (P388 leukemia; Group 2, 40 mg/kg ip): +2.2 gm
- Increase to Lifespan (P388 leukemia; Group 2, 60 mg/kg ip): 65%
- Median Survival Time (P388 leukemia; Group 2, 60 mg/kg ip): 16.5 days
- Weight Change Day 5 (P388 leukemia; Group 2, 60 mg/kg ip): -3.2 gm
- Weight Change Day 9 (P388 leukemia; Group 2, 60 mg/kg ip): -0.5 gm
- Increase to Lifespan (P388 leukemia; Group I, 1.5 mg/kg ip): 27%
- Median Survival Time (P388 leukemia; Group I, 1.5 mg/kg ip): 14 days
- Weight Change Day 5 (P388 leukemia; Group I, 1.5 mg/kg ip): +0.1 gm
- Weight Change Day 9 (P388 leukemia; Group I, 1.5 mg/kg ip): +4.6 gm
- Increase to Lifespan (P388 leukemia; Group I, 3 mg/kg ip): 27%
- Median Survival Time (P388 leukemia; Group I, 3 mg/kg ip): 14 days
- Weight Change Day 5 (P388 leukemia; Group I, 3 mg/kg ip): +0.4 gm
- Weight Change Day 9 (P388 leukemia; Group I, 3 mg/kg ip): +4.2 gm
- Increase to Lifespan (P388 leukemia; Group I, 6 mg/kg ip): 36%
- Median Survival Time (P388 leukemia; Group I, 6 mg/kg ip): 15 days
- Weight Change Day 5 (P388 leukemia; Group I, 6 mg/kg ip): +0.7 gm
- Weight Change Day 9 (P388 leukemia; Group I, 6 mg/kg ip): +2.9 gm
- Increase to Lifespan (P388 leukemia; Group I, 12 mg/kg ip): 45%
- Median Survival Time (P388 leukemia; Group I, 12 mg/kg ip): 16 days
- Weight Change Day 5 (P388 leukemia; Group I, 12 mg/kg ip): -2.6 gm
- Weight Change Day 9 (P388 leukemia; Group I, 12 mg/kg ip): +1.3 gm
- Increase to Lifespan (P388 leukemia; Group I, 24 mg/kg ip): 82%
- Median Survival Time (P388 leukemia; Group I, 24 mg/kg ip): 20 days
- Weight Change Day 5 (P388 leukemia; Group I, 24 mg/kg ip): +0.4 gm
- Weight Change Day 9 (P388 leukemia; Group I, 24 mg/kg ip): -0.6 gm
- maximally tolerated dose (P388 leukemia; a daily dose in this range, from weight loss): ~60 mg/kg/day
- activity in mice bearing intraperitoneal P388 leukemia (P388 leukemia; mouse, in vivo, ip): demonstrated reproducible activity
- activity in mice bearing intraperitoneal P388 leukemia (P388 leukemia; second group, 60 mg/kg/day): significant activity
- activity in mice bearing intraperitoneal P388 leukemia (P388 leukemia; second group, dose similar to 24 mg/kg/day): ineffective
- duration of side effects [3, 6]: last up to one hour
- onset of side effects [3, 6]: within a few minutes of administration
- side effects ([3]; 12.5 mg/kg to 50 mg/kg subcutaneously, sesame oil): central nervous system excitation, brief involuntary muscle contraction of the hind limbs resulting in lateral jumping movements, excessive preening of wound sites, and flushing of the tail and ears
- side effects ([3]; doses as low as 3 mg/kg): slight to moderate central nervous system excitation
- % Inhibition (edema) ([4]; 6.25 mg/kg): 0%
- % Inhibition (edema) ([4]; 12.5 mg/kg): 24.4%
- % Inhibition (edema) ([4]; 25 mg/kg): 43.8%
- % Inhibition (edema) ([4]; 50 mg/kg): 46.5%
- % Inhibition (edema) ([4]; 100 mg/kg): 90.4%
- % Inhibition (edema) ([5]; 6.25 ug/ear): 28.8%
- % Inhibition (edema) ([5]; 12.5 ug/ear): 78.3%
- % Inhibition (edema) ([5]; 25 ug/ear): 89.5%
- % Inhibition (edema) ([5]; 50 ug/ear): 96.0%
- ED50 ([5]; 50% inhibition of inflammation, n = 10 mice/dose): 8.3 ug/ear
